According to the NIST ThermoML archive (doi:10.1016/j.jct.2016.07.008):
Numbers after ± are expanded uncertainties.

Experiment: xn = mol fraction of the nth substance listed
Settings: Liquid, Vibrating wire viscometry

## CC(C)CC(C)(C)C [2,2,4-trimethylpentane] + CCCCO
333.15 K, 100 kPa, x2 = 0.3002
  viscosity: 0.3855 ± 0.0076 mPa·s
333.15 K, 100 kPa, x2 = 0.5003
  viscosity: 0.4739 ± 0.0089 mPa·s
333.15 K, 100 kPa, x2 = 0.8
  viscosity: 0.7766 ± 0.013 mPa·s
333.15 K, 1000 kPa, x2 = 0.3002
  viscosity: 0.3922 ± 0.0077 mPa·s
333.15 K, 1000 kPa, x2 = 0.5003
  viscosity: 0.4756 ± 0.0089 mPa·s
333.15 K, 1000 kPa, x2 = 0.8
  viscosity: 0.7891 ± 0.014 mPa·s
333.15 K, 5000 kPa, x2 = 0.3002
  viscosity: 0.4188 ± 0.0081 mPa·s
333.15 K, 5000 kPa, x2 = 0.5003
  viscosity: 0.5003 ± 0.0093 mPa·s
333.15 K, 5000 kPa, x2 = 0.8
  viscosity: 0.8182 ± 0.014 mPa·s
333.15 K, 10000 kPa, x2 = 0.3002
  viscosity: 0.4439 ± 0.0085 mPa·s
333.15 K, 10000 kPa, x2 = 0.5003
  viscosity: 0.5334 ± 0.0098 mPa·s
333.15 K, 10000 kPa, x2 = 0.8
  viscosity: 0.868 ± 0.015 mPa·s
333.15 K, 20000 kPa, x2 = 0.3002
  viscosity: 0.4973 ± 0.0092 mPa·s
333.15 K, 20000 kPa, x2 = 0.5003
  viscosity: 0.5894 ± 0.011 mPa·s
333.15 K, 20000 kPa, x2 = 0.8
  viscosity: 0.9602 ± 0.016 mPa·s
333.15 K, 30000 kPa, x2 = 0.3002
  viscosity: 0.552 ± 0.01 mPa·s
333.15 K, 30000 kPa, x2 = 0.5003
  viscosity: 0.6494 ± 0.011 mPa·s
333.15 K, 30000 kPa, x2 = 0.8
  viscosity: 1.04 ± 0.017 mPa·s
333.15 K, 40000 kPa, x2 = 0.3002
  viscosity: 0.6073 ± 0.011 mPa·s
333.15 K, 40000 kPa, x2 = 0.5003
  viscosity: 0.7134 ± 0.012 mPa·s
333.15 K, 40000 kPa, x2 = 0.8
  viscosity: 1.132 ± 0.019 mPa·s
333.15 K, 50000 kPa, x2 = 0.3002
  viscosity: 0.6677 ± 0.012 mPa·s
333.15 K, 50000 kPa, x2 = 0.5003
  viscosity: 0.7814 ± 0.013 mPa·s
333.15 K, 50000 kPa, x2 = 0.8
  viscosity: 1.232 ± 0.02 mPa·s
333.15 K, 60000 kPa, x2 = 0.3002
  viscosity: 0.7297 ± 0.013 mPa·s
333.15 K, 60000 kPa, x2 = 0.5003
  viscosity: 0.8534 ± 0.015 mPa·s
333.15 K, 60000 kPa, x2 = 0.8
  viscosity: 1.328 ± 0.022 mPa·s
333.15 K, 70000 kPa, x2 = 0.3002
  viscosity: 0.7944 ± 0.014 mPa·s
333.15 K, 70000 kPa, x2 = 0.5003
  viscosity: 0.9294 ± 0.016 mPa·s
333.15 K, 70000 kPa, x2 = 0.8
  viscosity: 1.419 ± 0.023 mPa·s
333.15 K, 80000 kPa, x2 = 0.3002
  viscosity: 0.857 ± 0.015 mPa·s
333.15 K, 80000 kPa, x2 = 0.5003
  viscosity: 1.009 ± 0.017 mPa·s
333.15 K, 80000 kPa, x2 = 0.8
  viscosity: 1.531 ± 0.025 mPa·s
333.15 K, 100000 kPa, x2 = 0.3002
  viscosity: 0.9892 ± 0.017 mPa·s
333.15 K, 100000 kPa, x2 = 0.5003
  viscosity: 1.181 ± 0.02 mPa·s
333.15 K, 100000 kPa, x2 = 0.8
  viscosity: 1.735 ± 0.028 mPa·s
333.15 K, 120000 kPa, x2 = 0.3002
  viscosity: 1.133 ± 0.019 mPa·s
333.15 K, 120000 kPa, x2 = 0.5003
  viscosity: 1.369 ± 0.023 mPa·s
333.15 K, 120000 kPa, x2 = 0.8
  viscosity: 1.973 ± 0.032 mPa·s
333.15 K, 140000 kPa, x2 = 0.3002
  viscosity: 1.279 ± 0.021 mPa·s
333.15 K, 140000 kPa, x2 = 0.5003
  viscosity: 1.573 ± 0.026 mPa·s
333.15 K, 140000 kPa, x2 = 0.8
  viscosity: 2.212 ± 0.036 mPa·s
353.15 K, 100 kPa, x2 = 0.3002
  viscosity: 0.3085 ± 0.0066 mPa·s
353.15 K, 100 kPa, x2 = 0.5003
  viscosity: 0.3658 ± 0.0074 mPa·s
353.15 K, 100 kPa, x2 = 0.8
  viscosity: 0.5523 ± 0.01 mPa·s
353.15 K, 1000 kPa, x2 = 0.3002
  viscosity: 0.3131 ± 0.0067 mPa·s
353.15 K, 1000 kPa, x2 = 0.5003
  viscosity: 0.3715 ± 0.0074 mPa·s
353.15 K, 1000 kPa, x2 = 0.8
  viscosity: 0.5621 ± 0.01 mPa·s
353.15 K, 5000 kPa, x2 = 0.3002
  viscosity: 0.3362 ± 0.007 mPa·s
353.15 K, 5000 kPa, x2 = 0.5003
  viscosity: 0.3955 ± 0.0078 mPa·s
353.15 K, 5000 kPa, x2 = 0.8
  viscosity: 0.5811 ± 0.01 mPa·s
353.15 K, 10000 kPa, x2 = 0.3002
  viscosity: 0.3574 ± 0.0073 mPa·s
353.15 K, 10000 kPa, x2 = 0.5003
  viscosity: 0.4195 ± 0.0081 mPa·s
353.15 K, 10000 kPa, x2 = 0.8
  viscosity: 0.6183 ± 0.011 mPa·s
353.15 K, 20000 kPa, x2 = 0.3002
  viscosity: 0.3982 ± 0.0078 mPa·s
353.15 K, 20000 kPa, x2 = 0.5003
  viscosity: 0.4654 ± 0.0088 mPa·s
353.15 K, 20000 kPa, x2 = 0.8
  viscosity: 0.6708 ± 0.012 mPa·s
353.15 K, 30000 kPa, x2 = 0.3002
  viscosity: 0.4475 ± 0.0085 mPa·s
353.15 K, 30000 kPa, x2 = 0.5003
  viscosity: 0.5151 ± 0.0095 mPa·s
353.15 K, 30000 kPa, x2 = 0.8
  viscosity: 0.7334 ± 0.013 mPa·s
353.15 K, 40000 kPa, x2 = 0.3002
  viscosity: 0.491 ± 0.0091 mPa·s
353.15 K, 40000 kPa, x2 = 0.5003
  viscosity: 0.5714 ± 0.01 mPa·s
353.15 K, 40000 kPa, x2 = 0.8
  viscosity: 0.793 ± 0.014 mPa·s
353.15 K, 50000 kPa, x2 = 0.3002
  viscosity: 0.5403 ± 0.0099 mPa·s
353.15 K, 50000 kPa, x2 = 0.5003
  viscosity: 0.6195 ± 0.011 mPa·s
353.15 K, 50000 kPa, x2 = 0.8
  viscosity: 0.8609 ± 0.015 mPa·s
353.15 K, 60000 kPa, x2 = 0.3002
  viscosity: 0.592 ± 0.011 mPa·s
353.15 K, 60000 kPa, x2 = 0.5003
  viscosity: 0.679 ± 0.012 mPa·s
353.15 K, 60000 kPa, x2 = 0.8
  viscosity: 0.9278 ± 0.016 mPa·s
353.15 K, 70000 kPa, x2 = 0.3002
  viscosity: 0.6322 ± 0.011 mPa·s
353.15 K, 70000 kPa, x2 = 0.5003
  viscosity: 0.7319 ± 0.013 mPa·s
353.15 K, 70000 kPa, x2 = 0.8
  viscosity: 0.9984 ± 0.017 mPa·s
353.15 K, 80000 kPa, x2 = 0.3002
  viscosity: 0.6788 ± 0.012 mPa·s
353.15 K, 80000 kPa, x2 = 0.5003
  viscosity: 0.7953 ± 0.014 mPa·s
353.15 K, 80000 kPa, x2 = 0.8
  viscosity: 1.069 ± 0.018 mPa·s
353.15 K, 100000 kPa, x2 = 0.3002
  viscosity: 0.7915 ± 0.014 mPa·s
353.15 K, 100000 kPa, x2 = 0.5003
  viscosity: 0.9151 ± 0.015 mPa·s
353.15 K, 100000 kPa, x2 = 0.8
  viscosity: 1.203 ± 0.02 mPa·s
353.15 K, 120000 kPa, x2 = 0.3002
  viscosity: 0.8951 ± 0.015 mPa·s
353.15 K, 120000 kPa, x2 = 0.5003
  viscosity: 1.026 ± 0.017 mPa·s
353.15 K, 120000 kPa, x2 = 0.8
  viscosity: 1.365 ± 0.022 mPa·s
353.15 K, 140000 kPa, x2 = 0.3002
  viscosity: 1.007 ± 0.017 mPa·s
353.15 K, 140000 kPa, x2 = 0.5003
  viscosity: 1.14 ± 0.019 mPa·s
353.15 K, 140000 kPa, x2 = 0.8
  viscosity: 1.526 ± 0.025 mPa·s
